Like-named read-outs stand apart in the source and are kept apart here.
Columns and labels:
[1] = system: IL-1β cytokine output from THP-1s; experiment: THP-1 AlphaLISA IL-1β cytokine assay; assay type: cell-based, human; conditions: read-out: IL-1β (IC50)
Experimental: Measuring Inhibitory Effects on IL-1β and IL-6 Cytokine Output from THP-1s
The cytokine inhibition profiles of compounds of formula (IW-1) were determined in a differentiated THP-1 cell assay. All assays were performed in RPMI-1640 growth medium (Gibco), supplemented with 10% fetal bovine serum (FBS; Gibco), 1% penicillin-streptomycin and 1% sodium pyruvate unless specified otherwise. The IL-1β and IL-6 cytokine inhibition assays were each run in a background of differentiated THP-1 cells as described below. All reagents described were from Sigma-Aldrich unless specified otherwise. Compounds were prepared as 10 mM DMSO stocks.
THP-1 cells were expanded as a suspension up to 80% confluence in appropriate growth medium. Cells were harvested, suspended, and treated with an appropriate concentration of phorbol 12-myristate 13-acetate (PMA) over a 72 hr period (37° C./5% CO2).
Following 72 hrs of THP-1 cell incubation, cellular medium was removed and replaced with fresh growth media containing 1% of FBS. Working concentrations of compounds were prepared separately in 10% FBS treated growth medium and pre-incubated with the cells for 30 minutes (37° C./5% CO2). Following the 30 minute compound pre-incubation, THP-1s were treated with an appropriate concentration of LPS and the THP-1s were subsequently incubated for a 24 hr period (37° C./5% CO2). An appropriate final concentration of Nigericin was then dispensed into the THP-1 plates and incubated for 1 hour (37° C./5% CO2) before THP-1 supernatants were harvested and collected in separate polypropylene 96-well holding plates.
Reagents from each of the IL-1β and IL-6 commercial kits (Perkin Elmer) were prepared and run according to the manufacturer's instructions. Subsequently, fluorescence signal detection in a microplate reader was measured (EnVision® Multilabel Reader, Perkin Elmer).
Percentage inhibition was calculated per cytokine by normalising the sample data to the high and low controls used within each plate (+/−LPS respectively). Percentage inhibition was then plotted against compound concentration and the 50% inhibitory concentration (IC50) was determined from the resultant concentration-response curve.

NRF2 = NRF2 +/-GSH activation assay (DiscoverX PathHunter NRF2 translocation kit, U2OS cells); assay type: cell-based; conditions: for EC50: read-out: NRF2 activation EC50; for Emax: read-out: NRF2 activation Emax
Experimental: Measuring Compound Activation Effects on the Anti-Inflammatory Transcription Factor NRF2 in DiscoverX PathHunter NRF2 Translocation Kit
Potency and efficacy of compounds of formula (IW-1) against the target of interest to activate NRF2 (nuclear factor erythroid 2-related factor 2) were determined using the PathHunter NRF2 translocation kit (DiscoverX). The NRF2 translocation assay was run using an engineered recombinant cell line, utilising enzyme fragment complementation to determine activation of the Keap1-NRF2 protein complex and subsequent translocation of NRF2 into the nucleus. Enzyme activity was quantified using a chemiluminescent substrate consumed following the formation of a functional enzyme upon PK-tagged NRF2 translocation into the nucleus.
The assay was run under either +/−GSH (glutathione) conditions to determine the attenuating activities of GSH against target compounds.
Additionally, a defined concentration of dimethyl fumarate was used as the ‘High’ control to normalise test compound activation responses to.
U2OS PathHunter eXpress cells were thawed from frozen prior to plating. Following plating, U2OS cells were incubated for 24 hrs (37° C./5% CO2) in commercial kit provided cell medium.
Following 24 hrs of U2OS incubation, cells were directly treated with an appropriate final concentration of compound, for −GSH conditions, or for +GSH conditions, an intermediate plate containing 6× working concentrations of compound stocks was prepared in a 6 mM working concentration of GSH solution (solubilised in sterile PBS). Following a 30 minute compound-GSH pre-incubation (37° C./5% CO2) for +GSH treatment, plated U2OS cells were incubated with an appropriate final concentration of compound and GSH.
Following compound (+/−GSH) treatment, the U2OS plates were incubated for a further 6 hours (37° C./5% CO2) before detection reagent from the PathHunter NRF2 commercial kit was prepared and added to test plates according to the manufacturer's instructions. Subsequently, the luminescence signal detection in a microplate reader was measured (PHERAstar®, BMG Labtech).
Percentage activation was calculated by normalising the sample data to the high and low controls used within each plate (+/−DMF). Percentage activation/response was then plotted against compound concentration and the 50% activation concentration (EC50) was determined from the plotted concentration-response curve.

[2] = Mouse pharmacokinetic study, intravenous dosing; assay type: in vivo; conditions: male, C57BL/6, mouse, iv, plasma, 10 mg/kg i.v., read-out: Parent compound concentration following intravenous administration
Experimental: (§1) Pharmacokinetic studies were carried out in 6-8-week-old male C57BL/6 mice having free access to food and water. Intravenous dosing was conducted at 10 mg/kg (5 mL/kg; vehicle: 10% DMSO-90% (25% HP-13-CD in water)) via tail vein injection, with sampling at 3 min, 8 min, 15 min, 30 min, 1, 2, 4, 6 and 8 hours, i.e., 9 time points in total (N=3/time point), using semi-serial bleeding for plasma. Oral compound administration, via gavage, was carried out at 100 mg/kg (10 mL/kg; vehicle: 5% DMSO-95% (0.5% HPMC+0.1% Tween 80 in water)), with sampling at 5 min, 15 min, 30 min, 1, 2, 4, 6, 8 and 24 hours, i.e., 9 time points in total (N=3/time point), using semi-serial bleeding for plasma.
(§2) For both intravenous and oral routes, the mice were restrained manually at the designated time points, with ca. 110 μL of blood being taken into K2EDTA tubes via the facial vein. Blood samples were put on ice and centrifuged to obtain plasma samples from which the concentration at each time point was measured by LC-MS/MS.

[3] = Mouse pharmacokinetic study, oral administration; assay type: in vivo; conditions: male, C57BL/6, mouse, plasma, po, 100 mg/kg, plasma, male C57BL/6 mice, oral gavage 100 mg/kg
Experimental: as §1, §2

[4] = Homo sapiens, THP-1, PMA-differentiated THP-1 cells, LPS 24 hr then Nigericin 1 hour
[5] = Homo sapiens, U2OS, normalised to dimethyl fumarate 'High' control, GSH condition not stated in Table 5
[6] = Homo sapiens, U2OS PathHunter cells, 6 hours, GSH condition not stated in Table 5

| IC50 [1, 4] | EC50 (NRF2; [6]) | SMILES | Emax (NRF2; [5]) | further results |
| --- | --- | --- | --- | --- |
| – | – | C=C(CC(=O)O[C@H]1[C@@H]2CC[C@H]1CN(S(C)(=O)=O)C2)C(=O)O[C@H]1[C@@H]2CC[C@H]1CN(S(C)(=O)=O)C2 [Example 156, bis((endo)-3-(methylsulfonyl)-3-azabicyclo[3.2.1]octan-8-yl) 2-methylenesuccinate] | – | IC50 [1]: 27.9 µM; EC50 (NRF2; U2OS PathHunter cells, 6 hours, GSH condition not stated in Table 5): 47.9 µM; NRF2 activation Emax (NRF2; normalised to dimethyl fumarate 'High' control, GSH condition not stated in Table 5): 63% |
| 14.7 µM | 31.3 µM | C=C(CC(=O)OC1CCCCCC1)C(=O)OCc1nn[nH]n1 [Example 162, 1-(2H-tetrazol-5-yl)methyl 4-cycloheptyl 2-methylenesuccinate] | 164% | – |
| 80.6 µM | 36.5 µM | C=C(CC(=O)OCCCOc1ccccc1)C(=O)OCC(=O)O [Example 95, 2-((2-methylene-4-oxo-4-(3-phenoxypropoxy)butanoyl)oxy)acetic acid] | 122% | – |
| 57.9 µM | 18 µM | C=C(C(=O)OCC(=O)O)C(O)C(=O)OC1CCCCCCC1 (stereo not shown) [Example 189, 2-((4-(cyclooctyloxy)-3-hydroxy-2-methylene-4-oxobutanoyl)oxy)acetic acid] | 137% | – |
| – | – | C=C(CC(=O)OC1CC2(CCC2)C1)C(=O)OCC(O)(O)C(F)(F)F [Example 160, 4-spiro[3.3]heptan-2-yl 1-(3,3,3-trifluoro-2,2-dihydroxypropyl) 2-methylenesuccinate Hydrate] | – | IC50 ([1]; Homo sapiens, PMA-differentiated THP-1 cells, LPS 24 hr then Nigericin 1 hour): 8.1 µM; EC50 (NRF2; Homo sapiens, U2OS, 6 h): 72.6 µM; Emax (NRF2; Homo sapiens, U2OS): 7% |
| 32.7 µM | 38 µM | C=C(CC(=O)OC1CCCCC1)C(=O)OCCc1nnn[nH]1 [Example 128, 1-(2-(1H-tetrazol-5-yl)ethyl) 4-cyclohexyl 2-methylenesuccinate] | 104% | – |
| 16 µM | 29.1 µM | C=C(CC(=O)OC1CCCCCCC1)C(=O)OCCc1nnn[nH]1 [Example 130, 1-(2-(1H-tetrazol-5-yl)ethyl) 4-cyclooctyl 2-methylenesuccinate] | 164% | – |
| 4.2 µM | 11.1 µM | C=C(CC(=O)O[C@H](C)CCCCCC)C(=O)OCCc1nnn[nH]1 [Example 135, (R)-1-(2-(1H-tetrazol-5-yl)ethyl) 4-octan-2-yl 2-methylenesuccinate] | 157% | – |
| 24.2 µM | 72.8 µM | C=C(CC(=O)OC1CCCOCC1)C(=O)O[C@H]1[C@@H]2CC[C@H]1CN(S(C)(=O)=O)C2 (stereo partly drawn) [Example 158, 1-((endo)-3-(methylsulfonyl)-3-azabicyclo[3.2.1]octan-8-yl) 4-(oxepan-4-yl) 2-methylenesuccinate] | 43% | – |
| 7.6 µM | – | C=C(CC(=O)OC(CCCC)CCCC)C(=O)OCC(=O)O [Example 175, 2-((2-methylene-4-(nonan-5-yloxy)-4-oxobutanoyl)oxy)acetic acid] | – | concentration at 0.05 h ([2]; time 0.05 h): 27500 ng/mL; concentration at 0.133 h ([2]; time 0.133 h): 11700 ng/mL; concentration at 0.25 h ([2]; time 0.25 h): 6110 ng/mL; concentration at 0.5 h ([2]; time 0.5 h): 1190 ng/mL; concentration at 1 h ([2]; time 1 h): 181 ng/mL; concentration at 2 h ([2]; time 2 h): 32 ng/mL; concentration at 4 h ([2]; time 4 h): < 4 ng/mL; concentration at 6 h ([2]; time 6 h): < 4 ng/mL; concentration at 8 h ([2]; time 8 h): < 4 ng/mL; concentration at 0.083 h ([3]; 0.083 h, read-out: Parent compound concentrations following oral administration, Time 0.083 h): 39100 ng/mL; concentration at 0.25 h ([3]; 0.25 h, read-out: Parent compound concentrations following oral administration, Time 0.25 h): 19500 ng/mL; concentration at 0.5 h ([3]; 0.5 h, read-out: Parent compound concentrations following oral administration, Time 0.5 h): 18200 ng/mL; concentration at 1 h ([3]; 1 h, read-out: Parent compound concentrations following oral administration, Time 1 h): 5520 ng/mL; concentration at 2 h ([3]; 2 h, read-out: Parent compound concentrations following oral administration, Time 2 h): 1410 ng/mL; concentration at 4 h ([3]; 4 h, read-out: Parent compound concentrations following oral administration, Time 4 h): 2000 ng/mL; concentration at 6 h ([3]; 6 h, read-out: Parent compound concentrations following oral administration, Time 6 h): 784 ng/mL; concentration at 8 h ([3]; 8 h, read-out: Parent compound concentrations following oral administration, Time 8 h): 231 ng/mL; concentration at 24 h ([3]; 24 h, read-out: Parent compound concentrations following oral administration, Time 24 h): < 4 ng/mL |

| SMILES | IC50 [1, 4] | EC50 (NRF2; [6]) | Emax (NRF2; [5]) | further results |
| --- | --- | --- | --- | --- |
| C=C(CC(=O)OC(C)COCCCC)C(=O)O[C@H]1[C@@H]2CC[C@H]1CN(S(C)(=O)=O)C2 (stereo partly drawn) [Example 159, 4-(1-butoxypropan-2-yl) 1-((endo)-3-(methylsulfonyl)-3-azabicyclo[3.2.1]octan-8-yl) 2-methylenesuccinate] | 31.9 µM | 13.8 µM | 86% | – |
